Reference: paper PMC8557901 (Microbiology Spectrum, 2021)

Assays:
[1] = system: P. cynomolgi liver-stage parasites in simian primary hepatocytes; assay: In vitro liver-stage development, P. cynomolgi in simian primary hepatocytes; type: cell-based, Plasmodium cynomolgi
Description: (§1) Primary human hepatocytes were isolated from liver segments obtained from adult patients undergoing partial hepatectomy (Service de Chirurgie Digestive, Hépato-Bilio Pancréatique, Hôpital Pitié Salpêtrière, Paris, France). Primary simian hepatocytes were isolated from liver segments collected from healthy Macaca fascicularis monkeys from CEA, Fontenay aux Roses, France. All hepatocytes were obtained using collagenase perfusion as previously described ([40]). […] Primary murine hepatocytes were isolated from liver segments collected from BALB/c mice. Human and murine hepatocytes were used directly after their isolation. Cells were seeded in 96-well plates (Falcon; Becton Dickinson Labware Europe, France) coated with collagen I (BD Bioscience, USA) at a density of 80,000 cells per well. […] For human hepatocytes, the complete medium was supplemented with 2% dimethyl sulfoxide (DMSO; Sigma-Aldrich, USA) before infection to preserve their differentiation.
(§2) On the day of infection, 3 · 10^4 sporozoites of P. falciparum, P. yoelii, and P. cynomolgi were added to their respective host cell cultures (human, murine, and simian). The infected culture plates were centrifuged for 10 min at 900 × g, allowing fast parasite sedimentation, and further incubated with serial dilutions of M1. Culture medium containing the appropriate drug concentration was refreshed daily, and cells were fixed at 48 h postinfection (p.i.) for infections with P. yoelii, 6 days p.i. for P. falciparum, or 8 days p.i. for P. cynomolgi. For the in vitro sporozoite invasion experiments, P. falciparum sporozoites were preincubated with 1, 10, and 100 μM M1 for 1 h at room temperature before hepatocyte infections. Three hours later, after sporozoite penetration into hepatocytes, cultures were washed and then further incubated with or without the presence of the drug during 6 days. DMSO was used as a negative control.
(§3) The number, size, and shape of the parasites were determined using a CellInsight high-content screening platform equipped with Studio HCS software (ThermoFisher Scientific). […] Host cell and parasite nuclei were labeled with DAPI (4′,6-diamidino-2-phenylindole). […] The custom script used for counting and measuring parasites first required identification of the objects based on a fluorescence intensity threshold. The object identity was then further validated based on size and morphological (shape) criteria. The presence of DAPI-associated fluorescence in the selected objects allowed their final selection and the rejection of false positives. […] The parasitic size reduction was calculated on the average object area using the total surface area of each selected object (μm^2).

[2] = system: P. yoelii liver-stage parasites in murine primary hepatocytes; assay: In vitro liver-stage development, P. yoelii in murine primary hepatocytes; type: cell-based, Plasmodium yoelii
Description: P. yoelii 230-GFP-Luc sporozoites are mutant parasites expressing a green fluorescent protein (GFP)-luciferase cassette generated by the gene out marker out (GOMO) strategy ([39]).
as §1, §2, §3

Microsomal stability = type: in vitro ADME; details: pH 7.4; female mouse microsomes (CD-1), 37°C; read-out: half-life (t1/2)
Experimental: The tested product and propranolol, used as a reference, were incubated in duplicate (reaction mixture volume of 0.5 ml) with female mouse microsomes (CD-1, 20 mg/ml; BD Gentest) at 37°C in a 50 mM phosphate buffer, pH 7.4, in the presence of MgCl2 (5 mM), NADP (1 mM), glucose-6-phosphate dehydrogenase (G6PD) (0.4 U/ml), and glucose-6-phosphate (5 mM). For the estimation of the intrinsic clearance, 50-μl aliquots were collected at 0, 5, 10, 20, 30, and 40 min and the reaction was stopped with 4 volumes of acetonitrile (ACN) containing the internal standard. After centrifugation at 10,000 × g for 10 min at 4°C, the supernatants were conserved at 4°C for immediate analysis or placed at −80°C in case of postponement of the analysis. Controls (time zero and final time point) in triplicate were prepared by incubation of the internal standard with microsomes denatured by acetonitrile. […] The chromatographic analysis, with a total duration of 4 min, was made with the following gradient: 0 < t < 0.2 min, 2% mobile phase B; 0.2 < t < 2 min, linear increase to 98% mobile phase B; 2 < t < 2.5 min, 98% mobile phase B; 2.5 < t < 2.6 min, linear decrease to 2% mobile phase B; 2.6 < t < 4 min, 2% mobile phase B. The quantification of each compound was obtained by converting the average of the ratios of the analyte/internal standard surfaces to the percentage of consumed product. […]

## Cc1ccc(-c2cc3nc(NC(C)(C)C)[nH]c(=O)c3s2)cc1 [Metabolite M1, 2-(tert-Butylamino)-6-(p-tolyl)thieno[3,2-d]pyrimidin-4(3H)-one]
[1]; P. cynomolgi in simian hepatocytes
  concentration from which liver-stage development was fully inhibited: 14 µM
[1]; Plasmodium cynomolgi, Hepatocyte, P. cynomolgi in simian primary hepatocytes (SH), mean ± SEM of triplicate experiments, read-out: EC50 against liver-stage parasites
  EC50: 1500 ± 300 nM
[1]; all tested concentrations (0.1 to 50 μM)
  activity on P. cynomolgi hypnozoites: not active
[1]; hepatocyte CC50/EC50, P. cynomolgi (SH)
  SI (selectivity index): >40
[1]; parasite (schizont) size, 10 μM, P. cynomolgi (SH)
  Size reduction at 10 μM (%): 80%
[2]; Plasmodium yoelii, Hepatocyte, P. yoelii in murine primary hepatocytes (MH), mean ± SEM of triplicate experiments, read-out: EC50 against liver-stage parasites
  EC50: 450 ± 100 nM
[2]; hepatocyte CC50/EC50, P. yoelii (MH)
  SI (selectivity index): >133
[2]; parasite (schizont) size, 10 μM, P. yoelii (MH)
  Size reduction at 10 μM (%): 100%
Microsomal stability
  half-life: 11 min
